Data as given in patent US5684026A, “Aminocyclopentane derivative” (priority 1994, dated 1997).

Molecular target: T1, α-Glucosidase (Baker's yeast, EC 3.2.1.20) (Saccharomyces cerevisiae, UniProt P53341)
T1 construct: purchased Sigma; host or cells: Baker's yeast
Test: α-Glucosidase enzyme inhibition assay (p-nitrophenyl α-D-glucopyranoside)
Type: biochemical
Conditions: compared with deoxynojirimycin; summary of Tables 1 and 2
Method: By using a 96-well microplate, the absorbance (at 405 nm) of liberated p- or o-nitrophenol was measured with a microplate reader (MPR-4Ai, manufactured by Tosoh Corporation).
Incubation was carried out at 37° C. by using a natural incubator (Compact NIB-10, manufactured by Iwaki Glass Co., Ltd.).
The enzymes employed herein [α-glucosidase (Baker's yeast), β-glucosidase (Almonds), α-galactosidase (E. coli), β-galactosidase (E. coli) and β-galactosidase (Bovine Liver)] were all purchased from Sigma.
The substrates (p- or o-nitrophenylglycoside) of these enzymes were all purchased from Sigma.
1) α-Glucosidase (Baker's yeast, EC 3.2.1.20) [described in H. Halvorson and L. Ellias, Biochim. Biophys. Acta, 30, 28-40 (1958)]
Into each well were introduced an aqueous solution of a sample (1 μl), a 0.66 mM solution of p-nitrophenyl α-D-glucopyranoside in a buffer (98 μl) and a (0.4 mg/ml) enzyme solution in the buffer (1 μl) to give a total volume of 100 μl. After incubating at 37° C. for 30 minutes, the reaction was ceased by adding a 1M aqueous solution of sodium carbonate (100 μl). Then the absorbance (A405) of p-nitrophenol liberated by this enzyme reaction was measured. To give the blank absorbance (Ablank), the sample (1 μl) and the substrate (99 μl) were incubated in the same manner and an aqueous solution of sodium carbonate (100 μl) was added followed by the measurement of the absorbance. […] The sample at each concentration, the blank and the control were treated each in two wells at the same time. As the buffer, a 0.1M phosphate buffer solution (pH 6.8, prepared from KH2 PO4 and K2 HPO4) was employed.

T1 sequence (P53341 whole entry): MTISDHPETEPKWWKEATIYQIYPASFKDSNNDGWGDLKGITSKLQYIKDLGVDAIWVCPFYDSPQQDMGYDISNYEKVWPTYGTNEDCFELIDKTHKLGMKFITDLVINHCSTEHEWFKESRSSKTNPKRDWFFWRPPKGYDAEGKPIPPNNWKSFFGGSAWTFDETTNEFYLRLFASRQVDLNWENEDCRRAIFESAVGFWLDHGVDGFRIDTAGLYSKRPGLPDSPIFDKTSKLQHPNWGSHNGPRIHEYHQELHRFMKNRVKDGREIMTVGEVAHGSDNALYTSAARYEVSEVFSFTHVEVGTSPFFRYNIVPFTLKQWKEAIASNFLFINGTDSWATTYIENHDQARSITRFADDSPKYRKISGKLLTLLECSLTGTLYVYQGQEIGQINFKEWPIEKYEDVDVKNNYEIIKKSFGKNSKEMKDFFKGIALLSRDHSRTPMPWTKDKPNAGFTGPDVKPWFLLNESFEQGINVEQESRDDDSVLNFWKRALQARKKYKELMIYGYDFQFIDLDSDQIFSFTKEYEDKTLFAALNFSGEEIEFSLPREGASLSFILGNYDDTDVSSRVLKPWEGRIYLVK

OC[C@@]12OC(Nc3ccccc3)=N[C@@H]1[C@H](O)[C@@H](O)[C@@H]2O [Compound 1-2L, (1S,5R,6S,7R,8S)-1-hydroxymethyl-3-phenylamino-2-oxa-4-azabicyclo[3.3.0]oct-3-ene-6,7,8-triol]
inhibitory activity against α-glucosidase (in words): remarkably strong inhibitory activities
